Data set [1] is described as follows: Circular dichroism analysis, percent α-helicity. The conditions noted are these: 10 mM phosphate buffer pH 7, SDS; for % α helicity: 10-30 μM peptide, 2 h folding. The class given is physicochemical. The method, then:
Following synthesis of the calcitonin analogues, the helicity of the calcitonin analogues was assessed by circular dichroism analysis. Far ultraviolet spectra (FIG. 6) were obtained from 195-260 nm on J-180 spectropolarimeter (Jasco) using 10-30 μM of sCT and all analogues in 10 mM phosphate buffer pH 7 and in the presence of sodium dodecyl sulphate (SDS), which were left for 2 h to allow folding. Each spectrum represents the average of 3 scans, and the mean residue ellipticity (θMRE) was calculated according to the following equation: […]
Percentage helicity of peptides as presented in Table 2 was calculated according to the following equation (Sommese, et al. 2010): […]
where n is the number of amino acids in the peptide.

Data set [2] can be described thus: Degradation in simulated gastric fluid (SGF). The class given is in vitro ADME. The following applies: for half-life: simulated gastric fluid, pH 1.3, pepsin 0.2 mg/mL stock, read-out: SGF t1/2. The method, then: sCT and its analogues were evaluated for their degradation in simulated gastric fluid (SGF). The stock solution of each analogue was prepared by dissolving 2 mg of the peptide in 1 mL water. The stock solution of pepsin enzyme was prepared by dissolving 5 mg of pepsin in 5 mL of 10 mM HCl (1 mg/mL), and then was diluted to a 0.2 mg/mL with 10 mM HCl. 7 For degradation, 34 μL of pepsin (0.2 mg/mL) was added to 100 μL of peptide (2 mg/mL) at pH 1.3 and the reaction incubated at 37° C. To monitor the degradation, 10 μL of the reaction aliquots were taken and quenched with 10 μL of 10 mM NaOH every 30 min for several hours and analyzed by HPLC using XSelect C18 column ([…], 130 A, 4.6×150 mm) with a gradient of 5-70% of 0.1% TFA in MeCN over 20 min with monitoring at 220 nm.

The target in data set [3] is T1, calcitonin receptor (CTR) (Homo sapiens, UniProt P30988).
T1 sequence (P30988 25-474): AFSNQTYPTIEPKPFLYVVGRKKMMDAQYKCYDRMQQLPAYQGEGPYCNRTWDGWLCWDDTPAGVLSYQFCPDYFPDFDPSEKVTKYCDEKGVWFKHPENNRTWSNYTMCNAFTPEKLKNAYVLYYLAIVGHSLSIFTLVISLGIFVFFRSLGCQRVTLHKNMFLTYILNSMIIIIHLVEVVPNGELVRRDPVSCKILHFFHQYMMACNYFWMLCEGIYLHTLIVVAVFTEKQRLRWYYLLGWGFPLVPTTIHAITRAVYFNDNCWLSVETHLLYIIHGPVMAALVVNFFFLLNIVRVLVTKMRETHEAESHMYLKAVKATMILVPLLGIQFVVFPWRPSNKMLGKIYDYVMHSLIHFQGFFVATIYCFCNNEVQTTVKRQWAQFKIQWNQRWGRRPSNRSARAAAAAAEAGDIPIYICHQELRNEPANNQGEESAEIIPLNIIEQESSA
The data set is described as follows: cAMP accumulation assay, U2OS Red cAMPNomad-CALCR cell line. The class given is cell-based. More on the design: expressed in transfected cells; host or cells: U2OS Red cAMPNomad-CALCR. The following applies: U2OS Red cAMPNomad-CALCR cells; for EC50: overnight incubation.

For data set [4], the target named is T1, calcitonin receptor (CTR). As to the kind of experiment: Ca^2+ concentration assay, HEK293 CALCR-HiTSeeker cell line. The following applies: HEK293 CALCR-HiTSeeker cells. The class given is cell-based. Details: expressed in transfected cells.
Data set [5] in a line: Degradation in simulated intestinal fluid (SIF).

Structures are written as SMILES. Several values for one entry are separate records, joined by “and”; a condition that tells them apart may be missing. Identical values can stand only once. Bridge positions count the residues as written; N and C are the ends. Square brackets hold non-standard residues; d marks the D form. Peptide text beside a SMILES is read from it. Sec = N[C@@H](C[SeH])C(=O)O

For the molecule `CC(C)C[C@H](NC(=O)[C@H](CCCCN)NC(=O)CNC(=O)[C@H](CC(C)C)NC(=O)[C@@H](NC(=O)[C@@H]1CSCSC[C@H](N)C(=O)N[C@@H](CO)C(=O)N[C@@H](CC(N)=O)C(=O)N[C@@H](CC(C)C)C(=O)N[C@@H](CO)C(=O)N[C@@H]([C@@H](C)O)C(=O)N1)C(C)C)C(=O)N[C@@H](CO)C(=O)N[C@@H](CCC(N)=O)C(=O)N[C@@H](CCC(=O)O)C(=O)N[C@@H](CC(C)C)C(=O)N[C@@H](Cc1c[nH]cn1)C(=O)N[C@@H](CCCCN)C(=O)N[C@@H](CC(C)C)C(=O)N[C@@H](CCC(N)=O)C(=O)N[C@H](C(=O)N[C@@H](Cc1ccc(O)cc1)C(=O)N1CCC[C@H]1C(=O)N[C@@H](CCCNC(=N)N)C(=O)N[C@H](C(=O)N[C@@H](CC(N)=O)C(=O)N[C@H](C(=O)NCC(=O)N[C@@H](CO)C(=O)NCC(=O)N[C@H](C(=O)N1CCC[C@H]1C(N)=O)[C@@H](C)O)[C@@H](C)O)[C@@H](C)O)[C@@H](C)O` [MT-CT], the “helicity retained following cyclization” value in data set [1] is given as “retain the high degree of helicity”. Besides, the “% α helicity” value in data set [1] is listed as 98.5%. Moreover, in data set [2] (pH 1.3, 37 °C), the half-life is 33.5 ± 0.2 min. The EC50 (commonly the midpoint of the concentration-response curve) was 1670 ± 60 nM in data set [3] (read-out: cAMP EC50), above 1000 nM in data set [3] (read-out: cAMP EC50 (bound)), 7300 ± 700 nM in data set [4] (read-out: Ca^2+ EC50) and above 1000 nM in data set [4] (read-out: Ca^2+ EC50 (bound)).
As for `CC(C)C[C@@H]1NC(=O)[C@@H](NC(=O)CNC(=O)[C@H](CC(C)C)NC(=O)[C@@H](NC(=O)[C@@H]2CSSC[C@H](N)C(=O)N[C@@H](CO)C(=O)N[C@@H](CC(N)=O)C(=O)N[C@@H](CC(C)C)C(=O)N[C@@H](CO)C(=O)N[C@@H]([C@@H](C)O)C(=O)N2)C(C)C)CCCCNCc2cc(ccc2O)C[C@@H](C(=O)N2CCC[C@H]2C(=O)N[C@@H](CCC(N)=O)C(=O)N[C@H](C(=O)N[C@@H](CC(N)=O)C(=O)N[C@H](C(=O)NCC(=O)N[C@@H](CO)C(=O)NCC(=O)N[C@H](C(=O)N2CCC[C@H]2C(N)=O)[C@@H](C)O)[C@@H](C)O)[C@@H](C)O)NC(=O)[C@H]([C@@H](C)O)NC(=O)[C@H](CCC(N)=O)NC(=O)[C@H](CC(C)C)NC(=O)[C@H](CCCCN)NC(=O)[C@H](Cc2c[nH]cn2)NC(=O)[C@H](CC(C)C)NC(=O)[C@H](CCC(=O)O)NC(=O)[C@H](CCC(N)=O)NC(=O)[C@H](CO)NC1=O` [KaY-1(R24Q)], in data set [2] (pepsin 0.2 mg/mL stock, pH 1.3, 37 °C), the “SGF t1/2” value is given as 170.6 ± 32.2 min. Further, the “half-life in SGF relative to sCT” value in data set [2] (pepsin, pH 1.3, 37 °C, vs sCT) is reported as “five-fold longer half-life”. Besides, the half-life in data set [2] (pH 1.3, 37 °C) was 170 min; in data set [5] (simulated intestinal fluid, pH 6.8, SIF t1/2, pancreatin 2 mg/mL stock, pH 6.8, 37 °C), 42 min. Moreover, the “improvement in stability in simulated gastric fluid over sCT” value in data set [2] (vs sCT, first figure of sentence) is reported as 5 fold. Further, the “SIF t1/2” value in data set [5] (pancreatin 2 mg/mL stock, pH 6.8, 37 °C) is given as 41.9 ± 6.1 min. Besides, in data set [5] (pancreatin, pH 6.8, 37 °C, vs sCT), the “stability in SIF compared to sCT” value was “six-fold enhancement in stability compared to sCT”. For the same molecule, the “improvement in stability in simulated gastric fluid” value in data set [5] (vs sCT, second figure of sentence) is on record as 6 fold. In addition, the EC50 in data set [3] (read-out: cAMP EC50) is 2.67 nM and 2.7 nM; in data set [4] (read-out: Ca^2+ EC50), 216 ± 43.8 nM.
With `CC(C)C[C@H](NC(=O)[C@H](CCCCN)NC(=O)CNC(=O)[C@H](CC(C)C)NC(=O)[C@@H](NC(=O)[C@@H]1C[Se][Se]C[C@H](N)C(=O)N[C@@H](CO)C(=O)N[C@@H](CC(N)=O)C(=O)N[C@@H](CC(C)C)C(=O)N[C@@H](CO)C(=O)N[C@@H]([C@@H](C)O)C(=O)N1)C(C)C)C(=O)N[C@@H](CO)C(=O)N[C@@H](CCC(N)=O)C(=O)N[C@@H](CCC(=O)O)C(=O)N[C@@H](CC(C)C)C(=O)N[C@@H](Cc1c[nH]cn1)C(=O)N[C@@H](CCCCN)C(=O)N[C@@H](CC(C)C)C(=O)N[C@@H](CCC(N)=O)C(=O)N[C@H](C(=O)N[C@@H](Cc1ccc(O)cc1)C(=O)N1CCC[C@H]1C(=O)N[C@@H](CCCNC(=N)N)C(=O)N[C@H](C(=O)N[C@@H](CC(N)=O)C(=O)N[C@H](C(=O)NCC(=O)N[C@@H](CO)C(=O)NCC(=O)N[C@H](C(=O)N1CCC[C@H]1C(N)=O)[C@@H](C)O)[C@@H](C)O)[C@@H](C)O)[C@@H](C)O` [Se-CT] (H-[Sec]SNLST[Sec]VLGKLSQELHKLQTYPRTNTGSGTP-NH2; diselenide 1-7), the “helicity retained following cyclization” value in data set [1] is given as “retain the high degree of helicity”. In addition, the “% α helicity” value in data set [1] was 99.2%. The half-life in data set [2] (pH 1.3, 37 °C) was 32.6 ± 0.5 min. In addition, the “cAMP EC50 / potency” value in data set [3] was “EC50 in the nanomolar range”. For the same molecule, the half-maximal effective concentration (EC50) was 82.7 ± 16.5 nM in data set [3] (read-out: cAMP EC50) and 113 ± 18.3 nM in data set [4] (read-out: Ca^2+ EC50).
Regarding `CC(C)C[C@H](NC(=O)[C@H](CCCCN)NC(=O)CNC(=O)[C@H](CC(C)C)NC(=O)[C@@H](NC(=O)[C@@H]1CSSC[C@H](N)C(=O)N[C@@H](CO)C(=O)N[C@@H](CC(N)=O)C(=O)N[C@@H](CC(C)C)C(=O)N[C@@H](CO)C(=O)N[C@@H]([C@@H](C)O)C(=O)N1)C(C)C)C(=O)N[C@@H](CO)C(=O)N[C@@H](CCC(N)=O)C(=O)N[C@@H](CCC(=O)O)C(=O)N[C@@H](CC(C)C)C(=O)N[C@@H](Cc1c[nH]cn1)C(=O)N[C@H]1CCCCNCc2cc(ccc2O)C[C@@H](C(=O)N2CCC[C@H]2C(=O)N[C@@H](CCCNC(=N)N)C(=O)N[C@H](C(=O)N[C@@H](CC(N)=O)C(=O)N[C@H](C(=O)NCC(=O)N[C@@H](CO)C(=O)NCC(=O)N[C@H](C(=O)N2CCC[C@H]2C(N)=O)[C@@H](C)O)[C@@H](C)O)[C@@H](C)O)NC(=O)[C@H]([C@@H](C)O)NC(=O)[C@H](CCC(N)=O)NC(=O)[C@H](CC(C)C)NC1=O` [KaY-2], the “% α helicity” value in data set [1] was 56.2%. For the same molecule, the half-life in data set [2] (pH 1.3, 37 °C) was 34.5 ± 0.3 min.
The like results for `CC(C)C[C@H](NC(=O)[C@H](CCCCN)NC(=O)CNC(=O)[C@H](CC(C)C)NC(=O)[C@@H](NC(=O)[C@@H]1CSSC[C@H](N)C(=O)N[C@@H](CO)C(=O)N[C@@H](CC(N)=O)C(=O)N[C@@H](CC(C)C)C(=O)N[C@@H](CO)C(=O)N[C@@H]([C@@H](C)O)C(=O)N1)C(C)C)C(=O)N[C@@H](CO)C(=O)N[C@@H](CCC(N)=O)C(=O)N[C@H]1CCC(=O)NCCCC[C@@H](C(=O)N[C@@H](CC(C)C)C(=O)N[C@@H](CCC(N)=O)C(=O)N[C@H](C(=O)N[C@@H](Cc2ccc(O)cc2)C(=O)N2CCC[C@H]2C(=O)N[C@@H](CCCNC(=N)N)C(=O)N[C@H](C(=O)N[C@@H](CC(N)=O)C(=O)N[C@H](C(=O)NCC(=O)N[C@@H](CO)C(=O)NCC(=O)N[C@H](C(=O)N2CCC[C@H]2C(N)=O)[C@@H](C)O)[C@@H](C)O)[C@@H](C)O)[C@@H](C)O)NC(=O)[C@H](Cc2c[nH]cn2)NC(=O)[C@H](CC(C)C)NC1=O` [CT(E15-K18)] were, in that order, 62.9% and 47.3 ± 1.9 min.
